Source: article PMC10108266, “Pharmacokinetic characteristics of golidocitinib, a highly selective JAK1 inhibitor, in healthy adult participants” (Frontiers in Immunology, 2023)
Like-named read-outs stand apart in the source and are kept apart here.

Tests used:
[1] = JACKPOT2 MAD urinary PK (Day 14); assay type: in vivo, human; conditions: for CLtotal: CL/F * F (0.7 from PBPK model); for Fe0-t: CLr/CLtotal; for Ae0-t: urine 0-24 hour on Day 14; for CL renal: human, oral
Description: (§1) In the SAD cohorts, serial blood samples were obtained on Day 1 at pre-dose, and at 0.5, 1, 1.5, 2, 3, 4, 6, 10, 14, 24 (Day 2), 48 (Day 3), 72 (Day 4), 120 (Day 6), 168 (Day 8) and 216 (Day 10) hours post-dose for plasma PK analysis. A similar sampling schedule was undertaken for the MAD cohorts on Day 1 and Day 14, with additional trough samples obtained on Days 5, Day 8, and Day 11. In the MAD cohorts, urine samples were collected on Day 14 during the collection intervals of 0-4, 4-10, and 10-24 hours following the last dose for urine PK analysis. Plasma and urine samples were analyzed by Frontage Laboratories Inc. (New Jersey, USA) using a validated LC/MS/MS bioanalytical method to determine golidocitinib concentrations. Cross validation in plasma was successful between Frontage Laboratories Inc. (New Jersey, USA) and Frontage Laboratories Inc. (Shanghai) using clinical samples and spiked quality control samples.
The mean (SD) amount of golidocitinib excreted in the urine over the collection period and renal clearance are presented in Table 2B . The average amount of golidocitinib excreted in the urine increased in an approximately dose proportional manner from 25 mg to 100 mg. […] The renal excretion fraction (Fe0-t) is helpful to compare the renal clearance (CLr) with total clearance (CLtotal) and determine the contribution of renal clearance in the drug elimination. It was calculated by the equation Fe0-t = CLr/CLtotal. The CL/F values were obtained from the two Phase I studies after the oral administration. Since the pharmacokinetics of golidocitinib after intravenous injection was not studied, the bioavailability value (F) was calculated by physiologically based pharmacokinetic (PBPK) model that incorporated compound specific information and independent prior knowledge on the physiology and biology at the organism.

Solubility in vitro = assay type: physicochemical
[2] = One-month toxicology study in rat; conditions: in vivo
[3] = JACKPOT2 multiple-ascending-dose plasma PK (once daily, 14 days); assay type: in vivo, human; conditions: for Cmax / AUC(0-t) / Tmax: human, plasma, oral; for Cmax / AUC(0-t): geometric mean (CV%); for AUC(0-t): read-out: AUC0-24h; for Tmax: median (min, max)
Description: A total of 42 and 24 healthy participants were enrolled in part A and part B, respectively. In part A, a total of 30 participants were randomized into 5 SAD cohorts (n = 6 per cohort) and received a single dose of golidocitinib at different dose levels or a matching placebo in a 4:2 ratio. In the food effect cohort, a total of 12 participants were enrolled and received the study drug under fasted or fed conditions, with a sequential design. The 50 mg dose was selected based on available safety data after the completion of the SAD cohorts, and also on the outcomes from PK/PD modeling for potential efficacious dose for autoimmune disease. On Day 1, participants took a single dose of golidocitinib under fast condition. After a 14-day wash-out period, on Day 15, participants received another single dose of golidocitinib immediately after a standard high-fat meal. Food recipes and contents are consistent with that described in FDA Guidance for Food-Effect Bioavailability studies ([10]). For the fed condition, keeping fasted for at least 10 hours, participants started ingestion of high-fat meal 30 minutes prior to administration of golidocitinib. They had to finish the meal within 30 minutes or less, and no food was allowed for at least 4 hours post-dose. In part B, a total of 24 participants were randomized into 3 MAD cohorts, with 8 in each cohort (active:placebo = 6:2). In these cohorts, participants received golidocitinib at different dose levels or placebo once daily dosing for 14 days. Dose escalation was based on available PK and safety data in the previous cohorts.
as §1
Non-compartmental PK analysis for golidocitinib concentrations was performed using Phoenix WinNonlin (Certara USA Inc., version 8.1).
Dose proportionality was concluded if the 90% confidence interval for the ratio of dose-normalized, geometric mean values (Rdnm) was contained completely within the range of 0.8 - 1.25 ([11], [12]).

P-glycoprotein (P-gp) = P-glycoprotein (P-gp) (Homo sapiens, UniProt P08183); test: In vitro P-gp substrate experiments; assay type: in vitro ADME; conditions: active transport saturable at high concentrations
[4] = 25 mg, 25 mg once daily, Day 14
[5] = 50 mg, 50 mg once daily, Day 14
[6] = 100 mg, 100 mg once daily, Day 1
[7] = 100 mg, 100 mg once daily, Day 14

Chain of P-glycoprotein (P-gp) (P08183 whole entry): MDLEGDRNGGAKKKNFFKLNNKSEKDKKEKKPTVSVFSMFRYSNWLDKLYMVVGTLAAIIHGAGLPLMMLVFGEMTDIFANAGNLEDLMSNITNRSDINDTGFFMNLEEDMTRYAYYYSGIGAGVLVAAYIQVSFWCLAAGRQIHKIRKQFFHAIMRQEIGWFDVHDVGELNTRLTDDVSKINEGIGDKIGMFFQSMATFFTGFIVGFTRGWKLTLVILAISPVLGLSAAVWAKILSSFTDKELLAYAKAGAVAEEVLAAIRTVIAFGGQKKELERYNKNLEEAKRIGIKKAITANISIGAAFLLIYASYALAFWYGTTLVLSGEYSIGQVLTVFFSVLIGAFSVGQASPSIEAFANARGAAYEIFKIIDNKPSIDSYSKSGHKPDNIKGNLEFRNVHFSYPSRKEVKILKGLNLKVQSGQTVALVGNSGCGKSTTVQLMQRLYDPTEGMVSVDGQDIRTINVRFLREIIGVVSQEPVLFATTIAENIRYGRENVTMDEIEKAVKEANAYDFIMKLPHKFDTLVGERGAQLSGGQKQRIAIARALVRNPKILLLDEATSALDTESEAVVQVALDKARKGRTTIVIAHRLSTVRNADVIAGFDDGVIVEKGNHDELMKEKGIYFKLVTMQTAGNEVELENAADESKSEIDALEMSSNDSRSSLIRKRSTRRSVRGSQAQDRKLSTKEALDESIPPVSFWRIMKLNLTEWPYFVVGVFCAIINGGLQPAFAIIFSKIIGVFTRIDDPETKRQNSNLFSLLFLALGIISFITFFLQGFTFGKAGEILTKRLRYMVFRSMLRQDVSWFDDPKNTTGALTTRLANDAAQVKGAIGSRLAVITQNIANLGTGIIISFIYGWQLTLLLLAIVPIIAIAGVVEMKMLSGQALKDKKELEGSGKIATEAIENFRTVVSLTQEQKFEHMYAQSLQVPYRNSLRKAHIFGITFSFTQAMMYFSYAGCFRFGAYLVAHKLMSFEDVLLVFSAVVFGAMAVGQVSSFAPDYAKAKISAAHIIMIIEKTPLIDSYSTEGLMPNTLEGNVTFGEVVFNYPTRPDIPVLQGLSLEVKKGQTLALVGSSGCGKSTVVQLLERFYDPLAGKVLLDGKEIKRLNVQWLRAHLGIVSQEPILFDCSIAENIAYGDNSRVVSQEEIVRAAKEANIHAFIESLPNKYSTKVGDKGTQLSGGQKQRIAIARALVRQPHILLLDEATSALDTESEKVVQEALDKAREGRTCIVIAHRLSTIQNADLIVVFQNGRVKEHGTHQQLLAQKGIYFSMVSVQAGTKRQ

## COc1nn(C)cc1Nc1nccc(-c2c[nH]c3c(NC(=O)[C@@H](C)N4CCN(C)CC4)cccc23)n1 [golidocitinib, (2R)-N-[3-[2-[(3-Methoxy-1-methyl-pyrazol-4-yl)amino]pyrimidin-4-yl]-1H-indol-7-yl]-2-(4-methylpiperazin-1-yl)propenamide]
[1]; 25 mg once daily 14 days
  CLtotal: 15.2 L/h
  Fe0-t: 20.9%
[1]; 25 mg once daily 14 days, mean (SD)
  Ae0-t: 4.94 (1.23) mg
[1]; 50 mg once daily 14 days
  CLtotal: 15.5 L/h
  Fe0-t: 23.9%
[1]; 50 mg once daily 14 days, mean (SD)
  Ae0-t: 11.7 (1.69) mg
[1]; 100 mg once daily 14 days
  CLtotal: 13.4 L/h
  Fe0-t: 20.2%
[1]; 100 mg once daily 14 days, mean (SD)
  Ae0-t: 19.2 (4.11) mg
[1]; urine and plasma, 25 mg once daily 14 days, Ae0-t/AUC0-t, mean (SD), read-out: CLr (converted)
  CL renal: 53 mL/min
[1]; urine and plasma, 50 mg once daily 14 days, Ae0-t/AUC0-t, mean (SD), read-out: CLr (converted)
  CL renal: 61.5 mL/min
[1]; urine and plasma, 100 mg once daily 14 days, Ae0-t/AUC0-t, mean (SD), read-out: CLr (converted)
  CL renal: 45.2 mL/min
[1]; urine, US participants, 25 mg to 100 mg, read-out: mean renal clearance
  CL renal: 45.2 to 61.5 mL/min
Solubility in vitro
  solubility: high solubility
[2]; body surface area (BSA) conversion, read-out: Human Equivalent Dose (HED) of the NOAEL
  Human equivalent dose of the NOAEL at 1 month: 0.972 mg/kg
[2]; most sensitive species (rat), one-month toxicology study, read-out: No Observed Adverse Effect Level (NOAEL)
  NOAEL at 1 month: 6 mg/kg
[3]; 25 mg, 25 mg once daily, Day 1
  Cmax: 33.8 ng/mL
  AUC(0-t): 536 ng·h/mL
  Tmax: 6 h
[3]; [4]
  Cmax: 83.9 ng/mL
  AUC(0-t): 1530 ng·h/mL
  Tmax: 6 h
[3]; 50 mg, 50 mg once daily, Day 1
  Cmax: 62.1 ng/mL
  AUC(0-t): 1020 ng·h/mL
  Tmax: 6 h
[3]; [5]
  Cmax: 169 ng/mL
  AUC(0-t): 3190 ng·h/mL
  Tmax: 6 h
[3]; [6]
  Cmax: 149 ng/mL
  AUC(0-t): 2490 ng·h/mL
  Tmax: 4 h
[3]; [7]
  Cmax: 375 ng/mL
  AUC(0-t): 7190 ng·h/mL
  Tmax: 6 h
[3]; multiple once-daily dosing
  increase of Cmax and AUC0-24hr on day 14 compared to day 1 (accumulation): 2-3 folds
[3]; once-daily dosing
  time to steady-state plasma concentrations: ≤ 14 days
P-glycoprotein (P-gp)
  P-gp substrate status: P-glycoprotein (P-gp) substrate
